For orientation: IC50 means the midpoint of a concentration-inhibition curve.

The test system of data set [1] is F98 rat glioma cells. As to the kind of experiment: Cell viability assay (WST-8) in F98 cells. Type of data set: cell-based. The conditions noted are these: WST-8 test, read-out: IC50 (cytotoxicity). The procedure: The cytotoxicity of KA-BSH was assayed using the water soluble tetrazolium (WST)-8 assay with a cell-counting kit (Wako Pure Chemicals, Osaka, Japan) following a modified version of the manufacturer-provided protocols. Relative cell survival was calculated according to Equation (1):(1) Relative cell survival (%)=absorbance value of compound treated well/absorbance value of untreated well×100
A general note: Tetrazolium dyes change colour on reduction, which living cells bring about.

The next data set concerns F98 glioma bearing rats. As to the kind of experiment: In vivo BNCT therapeutic experiment, neutron irradiation at KURRI. Set-up: species or system rat. The source says:
All animal experimental procedures were approved by the Animal Use Review Board and Ethical Committee of Osaka Medical College (No. 25092, 28 October 2015) and Kyoto University Research Reactor Institute (KURRI, No. 25030-13, 1 April 2015), and performed following the Guide for the Care and Use of Laboratory Animals. Eight-week-old, male Fischer 344 rats weighing between 200 and 250 g were used (Japan SLC, Inc. Shizuoka, Japan). Rats were anesthetized with an intraperitoneal (ip) injection of a mixture of medetomidine 0.15 mg, midazolam 2 mg, and butorphanol 2.5 mg/kg body weight (bw). The head of each rat was fixed with a stereotactic frame (Model 900; David Kopf Instruments, Tujunga, CA, USA). The scalp was incised at the midline and a small burr hole was drilled into the skull (1 mm posterior and 4 mm right-lateral to the bregma), using an electric drill. And then, F98 glioma cells were injected into the brain using a 25 µL Hamilton microsyringe with a 26-gauge needle (model 1700 RN, Hamilton Bonaduz AG, Bonaduz, Switzerland). The needle was inserted at a 5 mm depth from the skull and F98 cells were diluted in 10 µL of DMEM containing low-gelling temperature agarose at a concentration of either 10^3 for therapeutic experiments or 10^5 cells for biodistribution experiments. They were injected over 30 s using an automatic infuser pump. The needle entry hole was immediately sealed with bone wax and the incised scalp was closed with 3-0 silk sutures (Ethicon, North Ryde, NSW). […]
Therapeutic experiments for BNCT were performed 14 days after stereotactic implantation of 10^3 F98 glioma cells. […] The therapeutic effect of BNCT was evaluated by the survival time of the animals. […]
The means and standard deviations (SD) were computed for ^10B concentrations of F98 glioma cells and tissues of Fischer rats bearing intracerebral implants of the F98 glioma. […] Statistical differences between means were calculated using the Student’s unpaired t-test. In therapeutic experiments, the median survival time (MST) was calculated for each group using the Kaplan–Meier estimate. […]

Data set [2] has as its system F98 rat glioma cells. As to the kind of experiment: In vitro 10B uptake in F98 cells (ICP-AES). Format: cell-based. Particulars: 24 h incubation in DMEM with 1 mM boron compound. As to the method:
For the in vitro ^10B uptake study, B16 mouse melanoma cells, C6 rat glioma cells, and F98 rat glioma cells were used. B16 and C6 cells were used for in vitro testing at Osaka Prefecture University. Based on results from initial in vitro screening, the in vitro ^10B uptake study using F98 glioma cells were performed at Osaka Medical College. Four hundred thousand cells were seeded in a tissue culture dish (100 × 20 mm; Becton Dickinson, Franklin Lakes, NJ, USA) with DMEM supplemented with 10% FBS and 10% penicillin and streptomycin at 37 °C in a 5% CO2 atmosphere. After incubation for 4 days at 37 °C, the medium was removed, and DMEM with 10% FBS containing 1 mM KA-BSH, BSH, or BPA was added to each dish. The cells were incubated for an additional 24 h at 37 °C. The medium was then removed, and the cells were washed twice with 4 °C phosphate-buffered saline (PBS) and detached with trypsin–ethylenediamine tetraacetic acid solution. PBS was then added, and cells were digested overnight with 1 N nitric acid solution (Wako Pure Chemical Industries, Osaka, Japan), and ^10B uptake was determined by inductively coupled plasma atomic emission spectrometry (ICP-AES) using an iCAP6000 emission spectrometer (Hitachi High-Technologies, Tokyo, Japan).

The mark [3] stands for this setting: 10 mg 10B/kg iv, BNCT 1 h after administration.

On to “S-(2-(5-hydroxy-4-oxo-4H-pyran-2-yl) methyl) Thioundecahydro-Closo- Dodecaborate (2-) Disodium Salt [KA-BSH]”, for which the IC50 in the data set with F98 rat glioma cells [1] was found to be 10.4 mM. For the same substance, in the data set with F98 glioma bearing rats (setting [3]), the “Survival Time, Median (MST)” value stood at 36.0 days and the “Survival Time, Range” value is on record as 32 – 38. Besides, in the data set on F98 glioma bearing rats (relative to median survival time of untreated controls), the “%ILS Median (percent increase life span)” value came to 22.0%. For the same substance, in the data set on F98 rat glioma cells [2], the “10B concentration of F98 rat glioma cells” value is recorded as 0.821 ± 0.047 µg 10B/10^7 cells.

The record behind these values is paper PMC7349888, “Synthesis and Evaluation of Dodecaboranethiol Containing Kojic Acid (KA-BSH) as a Novel Agent for Boron Neutron Capture Therapy” (Cells, 2020).
